Measurements reported in ChEMBL document CHEMBL5303573, “Mapping human microbiome drug metabolism by gut bacteria and their genes” (Nature, 2019).

test: The drug is tested on Eubacterium hallii strain: DSM3353 for biotransformation. The drug concentrations were measured before and after a 12-h incubation by liquid-chromatography-coupled mass spectrometry (LC–MS); conditions: anaerobutyricum hallii, 2 µM

Row | Bacterial Biotransformation | SMILES
1 | Compound NOT metabolized | OC(c1cc(C(F)(F)F)nc2c(C(F)(F)F)cccc12)C1CCCCN1 (configuration not stated) [MEFLOQUINE]
2 | Compound NOT metabolized | CC(C)(C)NCC(O)COc1cccc2c1CC(O)C(O)C2 (configuration not stated) [NADOLOL]
3 | Compound NOT metabolized | C[C@@H]1C[C@H]2[C@@H]3CCC4=CC(=O)C=C[C@]4(C)[C@@]3(F)[C@@H](O)C[C@]2(C)[C@@]1(O)C(=O)CO [DEXAMETHASONE]

test: The drug is tested on Subdoligranulum variabile strain: DSM15176 for biotransformation. The drug concentrations were measured before and after a 12-h incubation by liquid-chromatography-coupled mass spectrometry (LC–MS); conditions: 2 µM

Row | Bacterial Biotransformation | SMILES
4 | Compound NOT metabolized | OC(c1cc(C(F)(F)F)nc2c(C(F)(F)F)cccc12)C1CCCCN1 (configuration not stated) [MEFLOQUINE]

test: The drug is tested on Bacteroides sp. WH2 strain: WH2 for biotransformation. The drug concentrations were measured before and after a 12-h incubation by liquid-chromatography-coupled mass spectrometry (LC–MS); conditions: bacteroides sp. wh2, 12 h, 2 µM

Row | Bacterial Biotransformation | SMILES
5 | Compound NOT metabolized | OC(c1cc(C(F)(F)F)nc2c(C(F)(F)F)cccc12)C1CCCCN1 (configuration not stated) [MEFLOQUINE]
6 | Compound NOT metabolized | CC(C)(C)NCC(O)COc1cccc2c1CC(O)C(O)C2 (configuration not stated) [NADOLOL]
7 | Compound NOT metabolized | C[C@@H]1C[C@H]2[C@@H]3CCC4=CC(=O)C=C[C@]4(C)[C@@]3(F)[C@@H](O)C[C@]2(C)[C@@]1(O)C(=O)CO [DEXAMETHASONE]

test: The drug is tested on Bacteroides coprophilus strain: DSM18228 for biotransformation. The drug concentrations were measured before and after a 12-h incubation by liquid-chromatography-coupled mass spectrometry (LC–MS); conditions: 2 µM

Row | Bacterial Biotransformation | SMILES
8 | Compound NOT metabolized | OC(c1cc(C(F)(F)F)nc2c(C(F)(F)F)cccc12)C1CCCCN1 (configuration not stated) [MEFLOQUINE]
9 | Compound NOT metabolized | C[C@@H]1C[C@H]2[C@@H]3CCC4=CC(=O)C=C[C@]4(C)[C@@]3(F)[C@@H](O)C[C@]2(C)[C@@]1(O)C(=O)CO [DEXAMETHASONE]

conditions: bacteroides eggerthii, 12 h, 2 µM
Description: The drug is tested on Bacteroides eggerthii strain: DSM20697 for biotransformation. The drug concentrations were measured before and after a 12-h incubation by liquid-chromatography-coupled mass spectrometry (LC–MS)

Row | Bacterial Biotransformation | SMILES
10 | Compound NOT metabolized | OC(c1cc(C(F)(F)F)nc2c(C(F)(F)F)cccc12)C1CCCCN1 (configuration not stated) [MEFLOQUINE]
11 | Compound NOT metabolized | CC(C)(C)NCC(O)COc1cccc2c1CC(O)C(O)C2 (configuration not stated) [NADOLOL]
12 | Compound NOT metabolized | C[C@@H]1C[C@H]2[C@@H]3CCC4=CC(=O)C=C[C@]4(C)[C@@]3(F)[C@@H](O)C[C@]2(C)[C@@]1(O)C(=O)CO [DEXAMETHASONE]

conditions: bacteroides thetaiotaomicron, 12 h, 2 µM
Description: The drug is tested on Bacteroides thetaiotaomicron strain: 7330 for biotransformation. The drug concentrations were measured before and after a 12-h incubation by liquid-chromatography-coupled mass spectrometry (LC–MS)

Row | Bacterial Biotransformation | SMILES
13 | Compound NOT metabolized | OC(c1cc(C(F)(F)F)nc2c(C(F)(F)F)cccc12)C1CCCCN1 (configuration not stated) [MEFLOQUINE]
14 | Compound NOT metabolized | CC(C)(C)NCC(O)COc1cccc2c1CC(O)C(O)C2 (configuration not stated) [NADOLOL]

test: The drug is tested on Bacteroides xylanisolvens strain: DSM18836 for biotransformation. The drug concentrations were measured before and after a 12-h incubation by liquid-chromatography-coupled mass spectrometry (LC–MS); conditions: 2 µM

Row | Bacterial Biotransformation | SMILES
15 | Compound NOT metabolized | OC(c1cc(C(F)(F)F)nc2c(C(F)(F)F)cccc12)C1CCCCN1 (configuration not stated) [MEFLOQUINE]
16 | Compound NOT metabolized | CC(C)(C)NCC(O)COc1cccc2c1CC(O)C(O)C2 (configuration not stated) [NADOLOL]
17 | Compound metabolized | C[C@@H]1C[C@H]2[C@@H]3CCC4=CC(=O)C=C[C@]4(C)[C@@]3(F)[C@@H](O)C[C@]2(C)[C@@]1(O)C(=O)CO [DEXAMETHASONE]

test: The drug is tested on Bacteroides dorei strain: DSM17855 for biotransformation. The drug concentrations were measured before and after a 12-h incubation by liquid-chromatography-coupled mass spectrometry (LC–MS); conditions: phocaeicola dorei, 2 µM

Row | Bacterial Biotransformation | SMILES
18 | Compound NOT metabolized | OC(c1cc(C(F)(F)F)nc2c(C(F)(F)F)cccc12)C1CCCCN1 (configuration not stated) [MEFLOQUINE]
19 | Compound metabolized | C[C@@H]1C[C@H]2[C@@H]3CCC4=CC(=O)C=C[C@]4(C)[C@@]3(F)[C@@H](O)C[C@]2(C)[C@@]1(O)C(=O)CO [DEXAMETHASONE]

test: The drug is tested on Bacteroides vulgatus strain: ATCC8482 for biotransformation. The drug concentrations were measured before and after a 12-h incubation by liquid-chromatography-coupled mass spectrometry (LC–MS); conditions: phocaeicola vulgatus, 2 µM

Row | Bacterial Biotransformation | SMILES
20 | Compound NOT metabolized | OC(c1cc(C(F)(F)F)nc2c(C(F)(F)F)cccc12)C1CCCCN1 (configuration not stated) [MEFLOQUINE]
21 | Compound NOT metabolized | CC(C)(C)NCC(O)COc1cccc2c1CC(O)C(O)C2 (configuration not stated) [NADOLOL]

conditions: parabacteroides distasonis, 12 h, 2 µM
Description: The drug is tested on Parabacteroides distasonis strain: ATCC8503 for biotransformation. The drug concentrations were measured before and after a 12-h incubation by liquid-chromatography-coupled mass spectrometry (LC–MS)

Row | Bacterial Biotransformation | SMILES
22 | Compound NOT metabolized | OC(c1cc(C(F)(F)F)nc2c(C(F)(F)F)cccc12)C1CCCCN1 (configuration not stated) [MEFLOQUINE]
23 | Compound NOT metabolized | C[C@@H]1C[C@H]2[C@@H]3CCC4=CC(=O)C=C[C@]4(C)[C@@]3(F)[C@@H](O)C[C@]2(C)[C@@]1(O)C(=O)CO [DEXAMETHASONE]

test: The drug is tested on Clostridium sporogenes strain: ATCC15579 for biotransformation. The drug concentrations were measured before and after a 12-h incubation by liquid-chromatography-coupled mass spectrometry (LC–MS); conditions: 2 µM

Row | Bacterial Biotransformation | SMILES
24 | Compound NOT metabolized | CC(C)(C)NCC(O)COc1cccc2c1CC(O)C(O)C2 (configuration not stated) [NADOLOL]

conditions: limosilactobacillus reuteri cf48-3a, 12 h, 2 µM
Description: The drug is tested on Lactobacillus reuteri CF48-3A strain: BEI HM-102 for biotransformation. The drug concentrations were measured before and after a 12-h incubation by liquid-chromatography-coupled mass spectrometry (LC–MS)

Row | Bacterial Biotransformation | SMILES
25 | Compound NOT metabolized | OC(c1cc(C(F)(F)F)nc2c(C(F)(F)F)cccc12)C1CCCCN1 (configuration not stated) [MEFLOQUINE]
26 | Compound NOT metabolized | CC(C)(C)NCC(O)COc1cccc2c1CC(O)C(O)C2 (configuration not stated) [NADOLOL]

test: The drug is tested on Clostridium asparagiforme strain: DSM15981 for biotransformation. The drug concentrations were measured before and after a 12-h incubation by liquid-chromatography-coupled mass spectrometry (LC–MS); assay type: ADME; parameters: dose 2 uM, timepoint 0 vs 12 hours; conditions: enterocloster asparagiformis, 2 µM

Row | Bacterial Biotransformation | SMILES
27 | Compound NOT metabolized | OC(c1cc(C(F)(F)F)nc2c(C(F)(F)F)cccc12)C1CCCCN1 (configuration not stated) [MEFLOQUINE]
28 | Compound NOT metabolized | CC(C)(C)NCC(O)COc1cccc2c1CC(O)C(O)C2 (configuration not stated) [NADOLOL]
29 | Compound NOT metabolized | C[C@@H]1C[C@H]2[C@@H]3CCC4=CC(=O)C=C[C@]4(C)[C@@]3(F)[C@@H](O)C[C@]2(C)[C@@]1(O)C(=O)CO [DEXAMETHASONE]

conditions: bacteroides stercoris, 12 h, 2 µM
Description: The drug is tested on Bacteroides stercoris strain: ATCC43183 for biotransformation. The drug concentrations were measured before and after a 12-h incubation by liquid-chromatography-coupled mass spectrometry (LC–MS)

Row | Bacterial Biotransformation | SMILES
30 | Compound NOT metabolized | OC(c1cc(C(F)(F)F)nc2c(C(F)(F)F)cccc12)C1CCCCN1 (configuration not stated) [MEFLOQUINE]
31 | Compound NOT metabolized | CC(C)(C)NCC(O)COc1cccc2c1CC(O)C(O)C2 (configuration not stated) [NADOLOL]
32 | Compound metabolized | C[C@@H]1C[C@H]2[C@@H]3CCC4=CC(=O)C=C[C@]4(C)[C@@]3(F)[C@@H](O)C[C@]2(C)[C@@]1(O)C(=O)CO [DEXAMETHASONE]

conditions: anaerostipes sp., 12 h, 2 µM
Description: The drug is tested on Anaerostipes sp. strain: fecal isolate for biotransformation. The drug concentrations were measured before and after a 12-h incubation by liquid-chromatography-coupled mass spectrometry (LC–MS)

Row | Bacterial Biotransformation | SMILES
33 | Compound NOT metabolized | OC(c1cc(C(F)(F)F)nc2c(C(F)(F)F)cccc12)C1CCCCN1 (configuration not stated) [MEFLOQUINE]
34 | Compound NOT metabolized | CC(C)(C)NCC(O)COc1cccc2c1CC(O)C(O)C2 (configuration not stated) [NADOLOL]
35 | Compound NOT metabolized | C[C@@H]1C[C@H]2[C@@H]3CCC4=CC(=O)C=C[C@]4(C)[C@@]3(F)[C@@H](O)C[C@]2(C)[C@@]1(O)C(=O)CO [DEXAMETHASONE]

test: The drug is tested on Clostridium symbiosum strain: ATCC14940 for biotransformation. The drug concentrations were measured before and after a 12-h incubation by liquid-chromatography-coupled mass spectrometry (LC–MS); conditions: 2 µM

Row | Bacterial Biotransformation | SMILES
36 | Compound NOT metabolized | OC(c1cc(C(F)(F)F)nc2c(C(F)(F)F)cccc12)C1CCCCN1 (configuration not stated) [MEFLOQUINE]
37 | Compound NOT metabolized | CC(C)(C)NCC(O)COc1cccc2c1CC(O)C(O)C2 (configuration not stated) [NADOLOL]
38 | Compound NOT metabolized | C[C@@H]1C[C@H]2[C@@H]3CCC4=CC(=O)C=C[C@]4(C)[C@@]3(F)[C@@H](O)C[C@]2(C)[C@@]1(O)C(=O)CO [DEXAMETHASONE]

test: The drug is tested on Bacteroides uniformis strain: ATCC8492 for biotransformation. The drug concentrations were measured before and after a 12-h incubation by liquid-chromatography-coupled mass spectrometry (LC–MS); conditions: 2 µM

Row | Bacterial Biotransformation | SMILES
39 | Compound NOT metabolized | OC(c1cc(C(F)(F)F)nc2c(C(F)(F)F)cccc12)C1CCCCN1 (configuration not stated) [MEFLOQUINE]
40 | Compound NOT metabolized | CC(C)(C)NCC(O)COc1cccc2c1CC(O)C(O)C2 (configuration not stated) [NADOLOL]
41 | Compound metabolized | C[C@@H]1C[C@H]2[C@@H]3CCC4=CC(=O)C=C[C@]4(C)[C@@]3(F)[C@@H](O)C[C@]2(C)[C@@]1(O)C(=O)CO [DEXAMETHASONE]

test: The drug is tested on Ruminococcus torques strain: ATCC27756 for biotransformation. The drug concentrations were measured before and after a 12-h incubation by liquid-chromatography-coupled mass spectrometry (LC–MS); assay type: ADME; parameters: dose 2 uM, timepoint 0 vs 12 hours; conditions: 2 µM

Row | Bacterial Biotransformation | SMILES
42 | Compound NOT metabolized | CC(C)(C)NCC(O)COc1cccc2c1CC(O)C(O)C2 (configuration not stated) [NADOLOL]
43 | Compound NOT metabolized | C[C@@H]1C[C@H]2[C@@H]3CCC4=CC(=O)C=C[C@]4(C)[C@@]3(F)[C@@H](O)C[C@]2(C)[C@@]1(O)C(=O)CO [DEXAMETHASONE]

test: The drug is tested on Anaerotruncus colihominis strain: DSM17241 for biotransformation. The drug concentrations were measured before and after a 12-h incubation by liquid-chromatography-coupled mass spectrometry (LC–MS); conditions: 2 µM

Row | Bacterial Biotransformation | SMILES
44 | Compound NOT metabolized | CC(C)(C)NCC(O)COc1cccc2c1CC(O)C(O)C2 (configuration not stated) [NADOLOL]

test: The drug is tested on Collinsella intestinalis strain: DSM13280 for biotransformation. The drug concentrations were measured before and after a 12-h incubation by liquid-chromatography-coupled mass spectrometry (LC–MS); conditions: 2 µM

Row | Bacterial Biotransformation | SMILES
45 | Compound NOT metabolized | OC(c1cc(C(F)(F)F)nc2c(C(F)(F)F)cccc12)C1CCCCN1 (configuration not stated) [MEFLOQUINE]
46 | Compound NOT metabolized | CC(C)(C)NCC(O)COc1cccc2c1CC(O)C(O)C2 (configuration not stated) [NADOLOL]
47 | Compound NOT metabolized | C[C@@H]1C[C@H]2[C@@H]3CCC4=CC(=O)C=C[C@]4(C)[C@@]3(F)[C@@H](O)C[C@]2(C)[C@@]1(O)C(=O)CO [DEXAMETHASONE]
